# According to publication PMC4745926, “Absorption, Metabolism, and Excretion by Freely Moving Rats of 3,4-DHPEA-EDA and Related Polyphenols from Olive Fruits (Olea europaea)” (Journal of Nutrition and Metabolism, 2016):
# Values joined by “and” are separate entries in the source; they are usually repeats but may differ in a detail not shown here. Identical values can stand only once. “Also recorded” adds a separate entry of the source. Like-named read-outs stand apart in the source and are kept apart here.
# Experiment: Portal plasma pharmacokinetics after oral administration in portal vein cannulated, freely moving rats
# Type: in vivo, Wistar ST rats
# Details: for bioavailability: plasma, intact compound, oral versus intravenous administration, read-out: bioavailability for 4 hours; for AUC: 0→4 h after oral administration, mean ± SEM
# Method: SPF Wistar ST rats (6 weeks of age, male, 180 ± 20 g of body weight) were purchased from Japan SLC Inc. (Hamamatsu, Japan). The rats were housed in an air-conditioned room at 22 ± 2°C under cycles of 12 hours dark and 12 hours light and given free access to a commercial diet and water for a week. The rats were then fasted for over 16 hours before the experiments. The present study was approved by the Animal Care and Use Committee at Kagawa University, and the rat treatment conformed to the Rules of Animal Experiments at Kagawa University. After fasting, the rats were cannulated with a polyethylene tube (PE-50; 0.58 mm I.D., 0.965 mm O.D.) into the jugular vein, portal vein, or bile duct under anesthesia with isoflurane inhalation using a WP-SAA01 (LMS Co., Ltd., Tokyo, Japan). A small hole was made in the vein or duct using pointed scissors and cannulated with the polyethylene tube. After inserting the tube, it was fixed at the edge of the vein or duct. The jugular vein and portal vein cannulas penetrated under the skin and were then tied at the back of the rats, and the bile duct cannula was tied at the abdomen of the rats. Bile duct-cannulated rats were then restrained in a Bollman cage (Natsume Seisakusho Co., Ltd., Tokyo, Japan). Before further experiments, the rats were allowed to recover from anesthesia. 3,4-[…] (300 mg/kg body weight; 936.51 μmol/kg) dissolved in 50% polyethylene glycol aqueous solution was administered orally via a stomach tube to the portal vein cannulated rats. Blood samples (450 μL) were then collected using a heparinized syringe attached to the cannula before administration and 5, 15, 30, 60, 120, and 240 min after administration. Urine was also collected before administration and 0 to 2 h and 2 to 4 h after administration. For intravenous administration, 3,4-[…] (10 mg/kg; 31.22 μmol/kg) was injected into the jugular vein, and blood (450 μL) was collected using a heparinized syringe before administration and 5, 15, 30, 60, 120, and 240 min after administration via the jugular vein cannula. The blood (450 μL) collected was immediately cooled on ice and centrifuged at 15,000 rpm for 5 min at 4°C to obtain over 200 μL plasma. Urine was also collected before administration and 0 to 2 h and 2 to 4 h after administration. Bile was collected via the bile duct cannula before administration and 0 to 2 h and 2 to 4 h after intravenous administration. The collected plasma, urine, and bile were immediately stored in an ice box until further analyses. HT (oral administration: 100 mg/kg; 648.66 μmol/kg, intravenous administration: 10 mg/kg; 64.87 μmol/kg) and Ole (oral administration: 300 mg/kg; 555.02 μmol/kg, intravenous administration: 10 mg/kg; 18.50 μmol/kg) were investigated using the same method as described above. Metabolites were deconjugated by using β-glucuronidase (500 U) and sulfatase (50 U) in 50 μL 625 mM MOPS (pH 6.8), which was added to 200 μL of plasma, urine, or bile. The mixture was incubated for 45 min at 37°C and subjected to extraction using QuEChERS [33]. […] Shimadzu, Kyoto, Japan) equipped with a Shim-pack XR-ODS column (3.0 mm I.D. × 100 mm; Shimadzu, Kyoto, Japan) at 40°C with a mobile phase of 0.5% TFA-1% acetonitrile aqueous solution (A) and 0.5% TFA-75% acetonitrile aqueous solution (B). The elution conditions are described as follows: isocratic elution of 0% B was maintained for 4.0 min; linear gradient 0 to 4% B, 4.0-4.5 min; linear gradient 4.0-16.0% B, 4.5-16.0 min; linear gradient 16.0-100% B, 16.0-25.0 min; isocratic elution of 100% B, 25.0-26.0 min; and linear gradient 100 to 0% B, 26.0-26.1 min, with a flow rate of 0.5 mL/min. Injection volume was 50 μL. All eluted peaks were detected at 279 nm with a diode array detector (SPD-M20A; Shimadzu, Kyoto, Japan). The absorption of 3,4-[…], and Ole was evaluated by dose-normalized 4 h area under the curve (AUC0→4 h/Dose) and C max/Dose values (Table 2). […]
# [1] = analyte HT in portal plasma after oral administration
# [2] = analyte HT in portal plasma after oral administration, listed as HT
# [3] = male, Wistar ST, rat, portal vein plasma, 100 mg/kg, analyte HT in portal plasma after oral administration
# [4] = analyte Ole in portal plasma after oral administration
# [5] = male, Wistar ST, rat, 300 mg/kg, analyte Ole in portal plasma after oral administration
# [6] = analyte HVA in portal plasma after oral administration
# [7] = analyte HVAOH in portal plasma after oral administration
smiles,measurement,setting,value
"OCCc1ccc(O)c(O)c1 [Hydroxytyrosol, 2-(3,4-dihydroxyphenyl) ethyl alcohol, reference compound]",AUC/Dose (AUC0→4 h-i.g./Dosei.g.),[1],51.1 ± 8.5 μM·min·kg/μmol
same,C max/Dose,[1],0.61 ± 0.089 μM·kg/μmol
same,AUC/Dose (AUC0→4 h-i.g./Dosei.g.),[2],51.1 μM·min·kg/μmol
same,C max/Dose,[2],0.61 μM·kg/μmol
same,AUC/Dose (AUC0→4 h-i.g./Dosei.g.),"analyte HT in portal plasma after oral administration, listed as hydroxytyrosol",51.1 μM·min·kg/μmol
same,bioavailability,"male, Wistar ST, rat",13.1%
same,Cmax,[3],395 ± 58 µM
same,Tmax,[3],15 min
same,AUC,"male, Wistar ST, rat, portal vein plasma, 100 mg/kg, analyte HT in portal plasma, triplicate, read-out: AUC (converted)",553 µM·h
"C/C=C1/[C@H](O[C@@H]2O[C@H](CO)[C@@H](O)[C@H](O)[C@H]2O)OC=C(C(=O)OC)[C@H]1CC(=O)OCCc1ccc(O)c(O)c1 [Oleuropein, reference compound]",AUC/Dose (AUC0→4 h-i.g./Dosei.g.),[4],1.8 ± 0.4 μM·min·kg/μmol
same,C max/Dose,[4],0.021 ± 0.006 μM·kg/μmol
same,AUC/Dose (AUC0→4 h-i.g./Dosei.g.),"analyte Ole in portal plasma after oral administration, listed as Ole",1.8 μM·min·kg/μmol
same,Cmax,[5],11.9 ± 3.2 µM
same,Tmax,[5],5 min
same,AUC,"male, Wistar ST, rat, 300 mg/kg, analyte Ole in portal plasma, triplicate, read-out: AUC (converted)",16.9 µM·h
same,bioavailability,"male, Wistar ST, rat",0.5%
"CC=C(C=O)C(CC=O)CC(=O)OCCc1ccc(O)c(O)c1 (stereo not drawn) [3,4-DHPEA-EDA, 3,4-dihydroxyphenylethyl elenolate dialdehydic form]",AUC/Dose (AUC0→4 h-i.g./Dosei.g.),Total of detected analytes in portal plasma after oral administration,36.4 μM·min·kg/μmol and 36.4 ± 5.9 μM·min·kg/μmol
same,AUC,Total of detected analytes in portal plasma,567.492 ± 92.322 µM·h
same,"Detection of parent 3,4-DHPEA-EDA in portal plasma","after oral administration, 300 mg/kg, 936.51 μmol/kg, 300 mg/kg",not observed; also recorded: not detected; also recorded: could not detect
same,AUC/Dose (AUC0→4 h-i.g./Dosei.g.),[1],27.7 μM·min·kg/μmol and 27.7 ± 3.3 μM·min·kg/μmol
same,C max/Dose,[1],0.22 μM·kg/μmol
same,Cmax,[1],179 ± 45.3 µM
same,T max,[1],30 min
same,AUC,"analyte HT in portal plasma, triplicate",432.25 ± 51.718 µM·h
same,AUC/Dose (AUC0→4 h-i.g./Dosei.g.),[6],4.5 μM·min·kg/μmol and 4.5 ± 1.8 μM·min·kg/μmol
same,C max/Dose,[6],0.03 μM·kg/μmol and 0.03 ± 0.007 μM·kg/μmol
same,Cmax,[6],21.5 ± 6.9 µM
same,T max,[6],60 min
same,AUC,"analyte HVA in portal plasma, triplicate",69.667 ± 27.442 µM·h
same,AUC/Dose (AUC0→4 h-i.g./Dosei.g.),[7],4.2 μM·min·kg/μmol and 4.2 ± 0.8 μM·min·kg/μmol
same,C max/Dose,[7],0.03 μM·kg/μmol and 0.03 ± 0.002 μM·kg/μmol
same,Cmax,[7],22.2 ± 2 µM
same,T max,[7],30 min
same,AUC,"analyte HVAOH in portal plasma, triplicate",65.575 ± 13.16 µM·h
same,"total absorption rate, times less than that of HT",total AUC0→4 h-i.g./Dosei.g. including metabolites,2.2 times
same,"ratio of AUC/Dose of 3,4-DHPEA-EDA : HT : Ole","total including metabolites in portal plasma after oral administration, Ole = 1",13.5
